“Also recorded” adds a separate entry of the source.
How the values were obtained:
[1] = test system: washed human platelets; experiment: Wash-out reversibility of inhibition of collagen-induced platelet aggregation; format: cell-based
Experimental: The reversible inhibition of Rhosin in collagen-induced platelet aggregation was assessed with similar wash-out experiments, and this reversible nature of Rhosin makes it a valuable antiplatelet drug candidate (Supporting Information Figure S4A,B). After confirming the structures of the above six active analogs, similar wash-out experiments were performed to compare the reversible function of the active analogs with Rhosin reversibility.

[2] = target: T1, RhoA-LARG interaction (Homo sapiens, UniProt P61586); experiment: In vitro complex-formation assay of RhoA with LARG DH-PH domain; format: binding; settings: R-G04 25 µM or 50 µM, S-G04 5 µM or 10 µM; 4 °C, 1 h
T1 construct: 100 ng of purified full-length RhoA
T1 sequence (P61586 whole entry, the tested form may be a part): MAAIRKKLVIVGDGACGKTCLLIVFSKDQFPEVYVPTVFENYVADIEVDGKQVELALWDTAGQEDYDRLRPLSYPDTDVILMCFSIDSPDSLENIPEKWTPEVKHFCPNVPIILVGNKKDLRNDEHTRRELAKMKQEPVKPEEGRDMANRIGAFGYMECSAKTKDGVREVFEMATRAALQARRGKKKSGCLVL
Experimental: (A) A complex-formation assay tested the inhibitory effects of 20 µM UC-177618 and UC-177619 on RhoA interaction with the LARG DH-PH domain. […] After incubating the compound-RhoA-LARG mixture at 4 °C for 1 h, the beads associated with RhoA were detected with anti-RhoA Western blotting. (B,C) Top view of the predicted structural contacts of UC-177618 and UC-177619 in the binding pocket around the Trp58 residue of RhoA.
(A) A complex-formation assay tested the inhibitory effects of R-G04 and S-G04 on RhoA interaction with the LARG DH-PH domain. MBP-(His)6-tagged LARG (100 ng) was immobilized on Amylose beads. Binding buffer containing full-length RhoA (100 ng) was pre-incubated with different concentrations of R-G04 (25 µM or 50 µM), and S-G04 (5 µM or 10 µM) was added to the beads. After incubating the compound-RhoA-LARG mixture at 4 °C for 1 h, the beads associated with RhoA were detected with anti-RhoA Western blotting. (B) Top view of the predicted structural contacts of R-G04 and S-G04 in the binding pocket around the Trp58 residue of RhoA.
In total, 100 ng of purified MBP (Maltose-binding protein)-(His)6-tagged LARG DH-PH was immobilized on 20 µL of suspended amylose beads (No. E8021S; New England Biolabs Inc., Ipswich, MA, USA) by incubating them in an orbital shaker at 4 °C for 30 min in binding buffer (20 mM Tris·HCl (pH 7.6), 100 mM NaCl, 0.01% Triton X-100, 5mM EDTA, and 5 mM MgCl2). The compounds were added to the binding buffer containing 100 ng of purified full-length RhoA and pre-incubated at 4 °C for 30 min under constant agitation. The Amylose beads bound to LARG were washed thrice with binding buffer to get rid of unbound LARG, and the pre-incubated compound-RhoA mixture was added to the beads. This LARG-compound-RhoA mixture was incubated in the orbital shaker at 4 °C for 1 h. The beads were washed three times, and the amount of RhoA protein co-precipitated with the MBP-fusion-bound beads was detected with anti-RhoA Western blotting.

[3] = test system: washed human platelets; experiment: Platelet aggregation induced by AA, U46619, ADP or thrombin; format: cell-based; settings: 10 µM S-G04 or 20 µM R-G04, 2 min pre-incubation
From the text: TxA2 is a metabolite derived from AA via the COX pathway, a potent vasoconstrictor, and a platelet agonist that results in irreversible platelet aggregation. […] The data in Figure 7 show the potential of the RhoA inhibitors to inhibit platelet aggregation mediated by diverse agonists, i.e., TxA2, ADP, U46619, AA, and thrombin, and ATP secretion, highlighting the potential to inhibit multiple-agonist-mediated platelet activation pathways at micromolar concentrations.
(§1) (A–D) Washed human platelets were pre-incubated with 10 µM S-G04 or 20 µM R-G04 for 2 min before being stimulated with Arachidonic Acid (AA), U46619, ADP, or Thrombin. The % platelet aggregation was measured 5 min after agonist stimulation. (E) Washed human platelets were pre-incubated with 10 µM S-G04 or 20 µM R-G04 for 2 min and with Chrono-lume® for 30 s at 37 °C before being stimulated with 0.1 U/mL Thrombin. […] TxB2 formation was determined using a TxB2 ELISA kit. The differences among DMSO, R-G04, and S-G04 were analyzed using t-test, and the results are shown as means ± SDs of three independent experiments. (* p < 0.05, ** p < 0.01, *** p < 0.001, and **** p < 0.0001).
The in vitro antiplatelet activity of the compounds was assayed on washed human platelets using light transmission aggregometry. Platelet aggregation was performed using a 4-channel Lumi-aggregometer (Chronolog, PA, USA) at 37 °C and stirring speed of 900 rpm. A volume of 250 µL of washed human platelets (2.5 × 10^8/mL) was pre-warmed to 37 °C along with the compounds or DMSO (0.1%) for 2 min before the addition of agonists such as collagen, AA, U46619 (a stable synthetic analog of thromboxane A2), ADP, and thrombin. For ATP secretion, platelets were pre-incubated with a luciferin/luciferase kit (Chrono-lume®) for 30 s at 37 °C before the addition of the agonist. The reactions were allowed to proceed for at least 4 min, and the results of platelet aggregation and ATP secretion were determined using Aggrolink software. Platelet aggregation was expressed as the maximum change in the light transmission, where the 100% value corresponded to treatment with the agonist alone. Compounds were evaluated in triplicate at nine compound concentrations ranging from 50 µM to 1 µM. The half-maximal inhibitory concentration (IC50) value was calculated as the concentration of the inhibitor causing 50% inhibition of aggregation.

[4] = test system: washed human platelets; experiment: ATP secretion (Chrono-lume) after thrombin stimulation; format: cell-based; settings: 10 µM S-G04 or 20 µM R-G04; thrombin 0.1 U/mL
Experimental: as §1
The in vitro antiplatelet activity of the compounds was assayed on washed human platelets using light transmission aggregometry. Platelet aggregation was performed using a 4-channel Lumi-aggregometer (Chronolog, PA, USA) at 37 °C and stirring speed of 900 rpm. […] The reactions were allowed to proceed for at least 4 min, and the results of platelet aggregation and ATP secretion were determined using Aggrolink software. Platelet aggregation was expressed as the maximum change in the light transmission, where the 100% value corresponded to treatment with the agonist alone. Compounds were evaluated in triplicate at nine compound concentrations ranging from 50 µM to 1 µM. […]

[5] = test system: washed human platelets; experiment: Thromboxane B2 ELISA assay; format: cell-based; settings: different concentrations; thrombin stimulation; Indomethacin 20 µM as comparator
Experimental: as §1
The level of TxB2 was measured with an enzyme immunoassay kit (No. 501020; Cayman Chemical, Ann Arbor, MI, USA) as previously described. […] The reactions were terminated by adding 250 µL of HEPES Tyrode’s buffer (pH 7.4) containing 2 mM EDTA. The platelets were centrifuged for 2 min, and the level of TxB2 in the supernatant was measured with the ELISA kit according to the manufacturer’s instructions.

[6] = Pharmacokinetic profile (unpublished data)
[7] = test system: RhoA; set-up: method as in PMID 22726684, PMID 22956131; settings: cited from earlier work
[8] = test system: RhoA, Rac1 and Cdc42; set-up: method as in PMID 22726684, PMID 27681226; settings: cited from earlier work

Row | SMILES | reversibility of inhibitory effect after wash-out [1] | LARG binding to RhoA [2] | AA-induced platelet aggregation [3] | ADP-induced platelet aggregation [3] | U46619-induced platelet aggregation [3] | thrombin-induced platelet aggregation [3] | ATP secretion [4] | generation of TxA2, measured as thromboxane B2 (TxB2) [5] | pharmacokinetic profile [6] | affinity of binding to the Trp58 region of the RhoA surface [7] | specificity of inhibition of Rho GTPase activation [8]
1 | N[C@H](Cc1c[nH]c2ccccc12)C(=O)N/N=C/c1ccc2nccnc2c1 [R-G04] | reversible | dose-dependently suppressing LARG binding to RhoA | failed to have the same inhibitory effect | significantly inhibited ADP-induced platelet aggregation | failed to have the same inhibitory effect | failed to have the same inhibitory effect | failed to have the same inhibitory effect | dose-dependent inhibition | poor pharmacokinetic profile | micromolar affinity | specifically inhibits the activation of RhoA but not that of Rac1 and Cdc42
2 | N[C@@H](Cc1c[nH]c2ccccc12)C(=O)N/N=C/c1ccc2nccnc2c1 [S-G04] |  | dose-dependently suppressing LARG binding to RhoA | suppressed the platelet activation | significantly inhibited ADP-induced platelet aggregation | suppressed the platelet activation | suppressed the platelet activation | inhibited ATP secretion | dose-dependent inhibition; also recorded: comparable to that of Indomethacin |  |  | 

Reference: PMC9961652 (International Journal of Molecular Sciences, 2023)
